≈ marks a conversion by molar mass, not a printed value. Like-named read-outs stand apart in the source and are kept apart here. Marks after values point to notes of the source that are not given here.
Experiments:
[1] = Viscosity (Rheosense mVroc Viscometer); format: physicochemical; details: approximately 10 mg/mL peptide in 10 mM Tris + 3 mg/mL m-cresol at pH 8.0; 25° C.; shear rate 1934 s^−1
Procedure: Viscosity of compounds of the present invention is measured in a Rheosense mVroc Viscometer with the following settings:
(a) Syringe size: 500 μL syringe
(b) Flow Rate: 100 μL/min flow rate
(c) Average Temperature: 25° C.
(d) Shear Rate: 1934 s^−1
Dry powder (compound) is weighed out, dissolved in water as a cloudy precipitate, and titrated to approximately pH 8.0 with 1N NaOH. The solution is sonicated and swirled by hand until peptide is in solution. Samples are sterile filtered (0.22 μm PVDF filters). Samples are then analyzed by UV-Vis to assess stock solution concentrations. Solutions are diluted to final concentration using 3× m-cresol in 10 mM Tris pH 8.0 buffer to final concentrations of approximately 10 mg/mL peptide by weight in 10 mM Tris+3 mg/mL m-cresol at pH 8.0. Samples were filtered through 0.22 μm filters immediately prior to viscosity analysis. 25 μL of sample are removed to verify concentration by RP-HPLC before and after analysis.
Water and buffer control samples are measured before and after each sample is analyzed. The instrument is washed with buffer (3×) in between analysis of each sample. The samples are loaded into individual syringes and analyzed. The first measurement is not included in the final calculation to allow for equilibration with the system. Samples are then analyzed in triplicate (n=3).
The viscosity of Compounds 1-4 was measured essentially as described in this assay.

[2] = Solubility (RP-HPLC and HPLC-SEC, 1 week at 4° C.); format: physicochemical; details: for HMW species formation by SEC-HPLC: 1 week at 4° C.; for visible precipitation or phase separation: after 1 week storage at 4° C.
Procedure: Solubility of compounds of the present invention is measured in an Agilent 1100 HPLC, an Agilent 1200 HPLC and a Nanodrop 2000. The following HPLC columns are used:
(a) RP-HPLC: Waters Symmetry Shield C18, 3.6 um, 4.6×100 mm
(b) HPLC-SEC: Tosoh Biosciences, TSK2000SWXL […]
All peptide concentrations are made at 10 mg/mL in the following:
(a) 10 mM Tris pH 8.0+3 mg/mL m-cresol
(b) 10 mM Tris pH 8.0+3 mg/mL m-cresol+150 mM NaCl
(c) 10 mM Tris pH 8.0+3 mg/mL m-cresol+0.02% Tween-20
5 mL of 10 mg/mL peptide dissolved in 10 mM Tris at pH 8.0 is concentrated to approximately 20 mg/mL using Amicon-ultra 3 kDa MWCO devices. The solution is filtered using Millivex 0.22 μM filters (PVDF membrane) and the final concentration is measured by the NanoDrop spectrometer. This stock solution is used to formulate to the final conditions stated above using 3× m-cresol, 10× NaCl, and 100× Tween-20 stock solutions. A 10 mg/mL PBS solution is also prepared by dissolving directly at 5 mg/mL and concentrating using Amicon-ultra 3 kDa MWCO devices.
Each solution is placed in a refrigerator at 4° C. for 1 week, with analysis by RP-HPLC to assess concentration and HPLC-SEC to assess HMW species formation. Analyses completed at T-0 week and T-1 week.
The solubility of Compounds 1-4 was measured essentially as described in this assay.

hGcg-R = hGcg-R (Homo sapiens, UniProt P47871); assay: hGcg-R Binding Assay (SPA radioligand competition, 293HEK membranes); details: read-out: Ki, nM ± SEM at the hGcg-R
DIO mice (C57BL/6) [3] = assay: Chronic treatment in DIO mice (body weight, fat, food intake); format: in vivo, mouse
Procedure: The effects on food intake and body weight/fat are evaluated in DIO mice. Five to six months old DIO mice (C57BL/6) from Taconic Biosciences are used in this study. Animals are individually housed in a temperature-controlled (24° C.) facility with a 12 hour light/dark cycle (lights on 6:00), and free access to food and water. The mice are acclimated to the facility for two weeks. The day before the study start, fat mass is measured by nuclear magnetic resonance (NMR) using an Echo Medical System (Houston, Tex.) instrument. The mice are randomized to treatment groups (N=7/group) based on body weight and fat mass so each group had similar starting mean body weight and fat mass. […] SC injections are made on Day 1, 4, 7, 10, and 13. Body weight and food intake are measured right before each injection throughout the study. Percent changes in body weight are calculated as follows: […]
At the completion of the study, total fat mass is measured again by NMR. Statistics are analyzed using ANOVA with Dunnett's comparison by JMP 6. Significance is denoted at p≤0.05 vs. vehicle.

DIO mice (C57BL/6) [4] = assay: Acute treatment in DIO mice (PCSK9, FGF-21, cholesterol); format: in vivo, mouse; details: 30 nmol/kg sc, 16 hours post dose
Procedure: In order to investigate metabolic pathways involved with the treatment of compounds of the present invention independent of weight loss, compounds are tested in DIO mice (C57BL/6) acutely. The mice used are three to four months old on a high fat diet for at least 4 weeks. Animals are individually housed in a temperature-controlled (24° C.) facility with a 12 hour light/dark cycle (lights on 6:00), and free access to food and water. Vehicle or testing compounds were administered to mice by subcutaneous injection at 16:00 the day before the study day. Animals were sacrificed 16 hours later to collect blood via cardia puncture. Statistics are analyzed using ANOVA with Dunnett's comparison for JMP-6. Significance is denoted at p≤0.05 vs vehicle.
Food intake was decreased to a similar level in all treatment groups, which may indicate that changes in cholesterol, PCSK9 and FGF-21 are food-intake independent.

hGLP-1-R [5] = target: T1, hGLP-1-R (Homo sapiens, UniProt P43220); assay: Functional hGLP-1-R assay (cAMP HTRF, HEK-293 clonal cell line); format: cell-based; parameters: expressed in transfected cells; host or cells: HEK-293 clonal cell line over-expressing the receptor; details: for Emax: HEK293; for EC50: cAMP, 60 minute incubation, 0.25% FBS, 0.05% BSA, geometric mean, read-out: Human GLP-1-R EC50, nM ± SEM (n)
Procedure: After a 60 minute incubation at room temperature, the resulting increase in intracellular cAMP (adenosine 3′,5′-cyclic monophosphate) is quantitatively determined using the CisBio cAMP Dynamic 2 HTRF Assay Kit (62AM4PEJ). cAMP levels within the cell are detected by adding the cAMP-d2 conjugate in cell lysis buffer (20 μl) followed by the antibody anti-cAMP-Eu^3+-Cryptate, also in cell lysis buffer (20 μl).
A relative EC50 value and percent top (Emax) are derived by non-linear regression analysis using the percent maximal response vs. the concentration of peptide added, fitted to a four-parameter logistic equation (Genedata Screener®).
Means for EC50 are expressed as Geometric means±standard error of the mean (SEM) with the number of replicates (n) indicated in parenthesis. Means for Emax are expressed as the arithmetic mean±standard error. ND signifies that agonist activity was not detected.

hGLP-1-R [6] = target: T1, hGLP-1-R; assay: hGLP-1R Binding Assay (SPA radioligand competition, 293HEK membranes); parameters: expressed in transfected cells; host or cells: 293HEK, stably transfected with plasmid phD, Hygromycin-selected; crude plasma membranes; details: read-out: Ki, nM ± SEM at the hGLP-1-R
[7] = 10 mM Tris pH 8.0 + 3 mg/mL m-cresol + 0.02% Tween-20, Tris pH 8 + 3 mg/mL m-cresol + 0.02% Tween-20
[8] = 10 mM Tris pH 8.0 + 3 mg/mL m-cresol + 150 mM NaCl, Tris pH 8 + 3 mg/mL m-cresol + 150 mm NaCl
[9] = 10 mM Tris pH 8.0 + 3 mg/mL m-cresol, Tris pH 8 + 3 mg/mL m-cresol
[10] = PBS pH 7.4, pH 7.4, read-out: solubility in PBS, pH 7.4
[11] = 15 nmol/kg sc every three days for 15 days
[12] = 30 nmol/kg sc every three days for 15 days

T1 sequence (P43220 24-463): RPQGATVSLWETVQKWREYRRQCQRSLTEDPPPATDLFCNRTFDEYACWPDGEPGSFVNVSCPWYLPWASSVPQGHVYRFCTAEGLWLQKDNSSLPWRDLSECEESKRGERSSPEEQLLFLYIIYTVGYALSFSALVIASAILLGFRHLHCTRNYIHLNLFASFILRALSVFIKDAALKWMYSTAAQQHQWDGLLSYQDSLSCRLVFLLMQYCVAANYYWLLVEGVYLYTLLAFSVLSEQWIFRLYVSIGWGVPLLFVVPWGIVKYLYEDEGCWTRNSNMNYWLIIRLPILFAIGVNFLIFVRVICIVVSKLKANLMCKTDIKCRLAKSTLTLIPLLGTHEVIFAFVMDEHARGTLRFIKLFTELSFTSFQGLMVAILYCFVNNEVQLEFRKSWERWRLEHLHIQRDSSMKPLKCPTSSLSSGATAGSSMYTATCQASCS
Chain of hGcg-R (P47871 26-477): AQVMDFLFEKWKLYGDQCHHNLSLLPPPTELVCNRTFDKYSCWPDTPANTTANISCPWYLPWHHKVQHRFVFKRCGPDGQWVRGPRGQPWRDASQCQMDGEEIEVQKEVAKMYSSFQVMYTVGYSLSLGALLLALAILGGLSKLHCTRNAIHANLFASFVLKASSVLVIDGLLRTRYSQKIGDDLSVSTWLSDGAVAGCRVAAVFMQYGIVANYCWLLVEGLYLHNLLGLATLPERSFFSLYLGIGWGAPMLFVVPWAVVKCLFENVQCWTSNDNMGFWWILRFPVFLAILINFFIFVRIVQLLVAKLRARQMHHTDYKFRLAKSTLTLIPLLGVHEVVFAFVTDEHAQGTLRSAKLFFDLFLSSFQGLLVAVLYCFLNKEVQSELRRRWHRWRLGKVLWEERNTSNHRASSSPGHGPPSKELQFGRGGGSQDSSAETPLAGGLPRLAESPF

| 500 μL syringe Viscosity [1] | solubility at 1 week [2, 7] | solubility at 1 week [2, 8] | solubility at 1 week [2, 9] | solubility at 1 week [2, 10] | Ki (hGcg-R) | Emax (hGLP-1-R [5]) | EC50 (hGLP-1-R [5]) | Ki (hGLP-1-R [6]) | SMILES | HMW species formation by SEC-HPLC [2] | visible precipitation or phase separation [2] | Body Fat (% change vs. vehicle from Day 1) (DIO mice (C57BL/6) [3]; [11]) | Body Weight (% change vs. vehicle from Day 1) (DIO mice (C57BL/6) [3]; [11]) | Body Fat (% change vs. vehicle from Day 1) (DIO mice (C57BL/6) [3]; [12]) | Body Weight (% change vs. vehicle from Day 1) (DIO mice (C57BL/6) [3]; [12]) | Cholesterol (% of vehicle) (DIO mice (C57BL/6) [4]) | FGF-21 (% of vehicle) (DIO mice (C57BL/6) [4]) | PCSK9 (% of vehicle) (DIO mice (C57BL/6) [4]) |
| --- | --- | --- | --- | --- | --- | --- | --- | --- | --- | --- | --- | --- | --- | --- | --- | --- | --- | --- |
| 1.06 cP or mPa-s | 10000 µg/mL | 10000 µg/mL | 10000 µg/mL | 10000 µg/mL (≈ 2210 µM) | 14.6 ± 4.4 nM | 104 ± 7% | 23.9 ± 4.5 nM | 23 ± 5.5 nM | CC(C)C[C@H](NC(=O)[C@H](CC(C)C)NC(=O)[C@H](Cc1c[nH]c2ccccc12)NC(=O)[C@H](CCC(=O)O)NC(=O)[C@@H](NC(=O)[C@H](Cc1ccccc1)NC(=O)[C@H](CCC(=O)O)NC(=O)[C@H](CCCCNC(=O)COCCOCCNC(=O)COCCOCCNC(=O)CC[C@H](NC(=O)CCCCCCCCCCCCCCCCC(=O)O)C(=O)O)NC(=O)[C@H](C)NC(=O)[C@H](CCCCN)NC(=O)[C@H](CCCCN)NC(=O)[C@H](CCC(=O)O)NC(=O)[C@H](CC(=O)O)NC(=O)[C@H](CC(C)C)NC(=O)[C@H](Cc1ccc(O)cc1)NC(=O)[C@H](CCCCN)NC(=O)[C@H](CO)NC(=O)[C@H](Cc1ccc(O)cc1)NC(=O)[C@H](CC(=O)O)NC(=O)[C@H](CO)NC(=O)[C@@H](NC(=O)[C@H](Cc1ccccc1)NC(=O)[C@@H](NC(=O)CNC(=O)[C@H](CCC(N)=O)NC(=O)C(C)(C)NC(=O)[C@@H](N)Cc1c[nH]cn1)[C@@H](C)O)[C@@H](C)O)C(C)C)C(=O)N[C@@H](CCC(=O)O)C(=O)NCC(=O)NCC(=O)N1CCC[C@H]1C(=O)N[C@@H](CO)C(=O)N[C@@H](CO)C(=O)NCC(N)=O [Compound 1] | No observed HMW species formation by SEC-HPLC; | No visible precipitation or phase separation observed after 1 week | −49* % | −19* % | −66* % | −29* % | 60.9* % of vehicle | 1770* % of vehicle | 14.6* % of vehicle |
| 1.04 cP or mPa-s | 10000 µg/mL | 10000 µg/mL | 10000 µg/mL | 10000 µg/mL (≈ 2190 µM) | 17.7 ± 5 nM | 107 ± 7% | 83.1 ± 16.8 nM | 28.6 ± 4.8 nM | CC(C)C[C@H](NC(=O)[C@H](CC(C)C)NC(=O)[C@H](Cc1c[nH]c2ccccc12)NC(=O)[C@H](CCC(=O)O)NC(=O)[C@@H](NC(=O)[C@H](Cc1ccccc1)NC(=O)[C@H](CCC(=O)O)NC(=O)[C@H](CCCCNC(=O)COCCOCCNC(=O)COCCOCCNC(=O)CC[C@H](NC(=O)CCCCCCCCCCCCCCCCCCC(=O)O)C(=O)O)NC(=O)[C@H](C)NC(=O)[C@H](CCCCN)NC(=O)[C@H](CCCCN)NC(=O)[C@H](CCC(=O)O)NC(=O)[C@H](CC(=O)O)NC(=O)[C@H](CC(C)C)NC(=O)[C@H](Cc1ccc(O)cc1)NC(=O)[C@H](CCCCN)NC(=O)[C@H](CO)NC(=O)[C@H](Cc1ccc(O)cc1)NC(=O)[C@H](CC(=O)O)NC(=O)[C@H](CO)NC(=O)[C@@H](NC(=O)[C@H](Cc1ccccc1)NC(=O)[C@@H](NC(=O)CNC(=O)[C@H](CCC(N)=O)NC(=O)C(C)(C)NC(=O)[C@@H](N)Cc1c[nH]cn1)[C@@H](C)O)[C@@H](C)O)C(C)C)C(=O)N[C@@H](CCC(=O)O)C(=O)NCC(=O)NCC(=O)N1CCC[C@H]1C(=O)N[C@@H](CO)C(=O)N[C@@H](CO)C(=O)NCC(N)=O [Compound 2] | No observed HMW species formation by SEC-HPLC; | No visible precipitation or phase separation observed after 1 week | −43* % | −19* % | −70* % | −33* % | 80.6* % of vehicle | 465* % of vehicle | 12.8* % of vehicle |

From patent US9938335B2, “Glucagon and GLP-1 co-agonist compounds” (Eli Lilly and Company, priority 2015, dated 2018)
